Patent US20130065818A1, “Arylamide Compounds And Compositions And Uses Thereof” (POLYMEDIX, priority 2006, published 2013)
Converted amounts (≈) assume the structure as drawn. Like-named read-outs stand apart in the source and are kept apart here.

Test system: E. coli D31
Assay: MIC, control bacteria (Example 8)
Assay type: cell-based
Method: • Mueller-Hinton Broth in tubes was inoculated with 25 ocular isolates of Staphylococcus aureus fluoroquinolone-susceptible, Staphylococcus aureus fluoroquinolone-resistant, Staphylococcus epidermidis (Coagulase-negative Staphylococcus) fluoroquinolone-susceptible, Staphylococcus epidermidis (Coagulase-negative Staphylococcus) fluoroquinolone-resistant, Pseudomonas aeruginosa and Serratia marcescens, plus two controls (Staphylococcus aureus and E. coli) and incubated at 37° C. overnight on a shaker set at 250 rpm.
Control Bacteria—The two control bacteria (Staphylococcus aureus and E. coli) were treated as above.
Control Bacteria Set #1—this set of control bacteria were treated as the Streptococcus pneumoniae, Streptococcus viridans and Moraxella species (including Moraxella catarrhalis) test isolates above; the control bacteria underwent the same conditions as the test Streptococcus pneumoniae, Streptococcus viridans and Moraxella species (including Moraxella catarrhalis) isolates. This set of control bacteria was to determine whether there was a difference in the MICs by performing the MIC determinations in 2% lysed horse red blood cells with the standard method performed in Mueller-Hinton broth.
Control Bacteria Set #2—the control bacteria were added to 5 ml of Mueller-Hinton Broth without the 2% lysed horse red blood cells to achieve the standard inoculum concentration. This set of control bacteria is the normal control to determine whether the compounds are at the target MICs.
Control Bacteria Set #1—this set of control bacteria were treated as the Haemophilus influenzae test isolates above; the control bacteria underwent the same conditions as the test Haemophilus influenzae isolates. This set of control bacteria is to determine whether there was a difference in the MICs by performing the MIC determinations in HTM broth with the standard method performed in Mueller-Hinton broth.
Control Bacteria Set #2—the control bacteria were added to 5 ml of Mueller-Hinton Broth to achieve the standard inoculum concentration. This set of control bacteria is the normal control to determine whether the compounds are at the target MICs.
Ninety μl of the bacterial suspensions was dispensed in each well from column 1 to column 12. Each bacterial isolate was placed in one row of a 96 well polypropylene plate containing the test agents. The plates were placed on shaker at 15 minutes at room temperature, and then incubated at 37° C. overnight. MICs were determined visually as the lowest concentration of drug that inhibits visible bacterial growth.

N=C(N)NCCCCC(=O)Nc1cc(C(F)(F)F)cc(NC(=O)c2cc(C(=O)Nc3cc(C(F)(F)F)cc(NC(=O)CCCCNC(=N)N)c3O[C@@H]3CCNC3)ncn2)c1O[C@@H]1CCNC1 [Oligomer 4]
Decrease of activity by addition of 2% lysed horse red blood cells to Mueller-Hinton broth (Control Bacteria E. coli D31): approximately 4 fold | Decrease of activity by use of HTM broth (Control Bacteria E. coli D31): approximately 8 fold | MIC (Control Bacteria Set #1, run with Haemophilus influenzae MIC test, read-out: MIC): 8 µg/mL (≈ 8.54 µM) | MIC (E. coli D31, Control for MIC Test SA-FQR, first batch): 1 µg/mL (≈ 1.07 µM) | MIC (E. coli D31, Control for MIC Test SA-FQS, first batch): 1 µg/mL (≈ 1.07 µM) | MIC (E. coli D31, new batches, Control Only 1): 1 µg/mL (≈ 1.07 µM) | MIC (E. coli D31, new batches, Control Only 2): 1 µg/mL (≈ 1.07 µM) | MIC (E. coli D31, new batches, Control Only 3): 1 µg/mL (≈ 1.07 µM) | MIC (E. coli D31, new batches, Control Only 4): 1 µg/mL (≈ 1.07 µM) | MIC (E. coli Lab Strain D31): 0.78 µg/mL (≈ 0.833 µM) | MIC (Escherichia coli, D31, Control Bacteria Set #1, run with Moraxella MIC test, read-out: MIC): 4 µg/mL (≈ 4.27 µM) | MIC (Escherichia coli, D31, Control Only 1, read-out: MIC of control bacteria on day of MIC testing): 1 µg/mL | MIC (Escherichia coli, D31, Control Only 2, read-out: MIC of control bacteria on day of MIC testing): 1 µg/mL | MIC (Escherichia coli, D31, Control Only 3, read-out: MIC of control bacteria on day of MIC testing): 1 µg/mL | MIC (Escherichia coli, D31, Control Only 4, read-out: MIC of control bacteria on day of MIC testing): 1 µg/mL | MIC (Escherichia coli, D31, E. coli D31, Control Bacteria Set #1 (same conditions as test isolates), run with Streptococcus pneumoniae MIC test, read-out: MIC): 2 µg/mL (≈ 2.13 µM) | MIC (Escherichia coli, D31, E. coli D31, Control Bacteria Set #1 (same conditions as test isolates), run with Streptococcus viridans group MIC test, read-out: MIC): 2 µg/mL (≈ 2.13 µM) | MIC (Escherichia coli, D31, E. coli D31, Control Bacteria Set #2 (Mueller-Hinton Broth), run with Streptococcus pneumoniae MIC test, read-out: MIC): 0.5 µg/mL (≈ 0.534 µM) | MIC (Escherichia coli, D31, E. coli D31, Control Bacteria Set #2 (Mueller-Hinton Broth), run with Streptococcus viridans group MIC test, read-out: MIC): 0.5 µg/mL (≈ 0.534 µM) | MIC (Escherichia coli, D31, E. coli D31, control bacteria run with Pseudomonas aeruginosa MIC test, read-out: MIC): 0.5 µg/mL (≈ 0.534 µM) | MIC (Escherichia coli, D31, E. coli D31, control bacteria run with S. aureus fluoroquinolone-resistant MIC test, read-out: MIC): 1 µg/mL (≈ 1.07 µM) | MIC (Escherichia coli, D31, E. coli D31, control bacteria run with S. aureus fluoroquinolone-susceptible MIC test, read-out: MIC): 1 µg/mL (≈ 1.07 µM) | MIC (Escherichia coli, D31, E. coli D31, control bacteria run with S. epidermidis fluoroquinolone-resistant MIC test, read-out: MIC): 1 µg/mL (≈ 1.07 µM) | MIC (Escherichia coli, D31, E. coli D31, control bacteria run with S. epidermidis fluoroquinolone-susceptible MIC test, read-out: MIC): 1 µg/mL (≈ 1.07 µM) | MIC (Escherichia coli, D31, E. coli D31, control bacteria run with Serratia marcescens MIC test, read-out: MIC): 0.5 µg/mL (≈ 0.534 µM) | MIC (Escherichia coli, D31, E. coli D31, MIC previously obtained (target MIC), printed in parentheses, read-out: MIC for Control Bacteria within the parentheses): 0.78 µg/mL (≈ 0.833 µM) | MIC (Escherichia coli, D31, E. coli D31, read-out: MIC): 0.78 µg/mL (≈ 0.833 µM) | MIC (Escherichia coli, D31, control for MIC test HI (Control Bacteria Set #2), read-out: MIC of control bacteria on day of MIC testing): 1 µg/mL | MIC (Escherichia coli, D31, control for MIC test MS (Control Bacteria Set #2), read-out: MIC of control bacteria on day of MIC testing): 1 µg/mL | MIC (Escherichia coli, D31, control for MIC test PA, read-out: MIC of control bacteria on day of MIC testing): 0.5 µg/mL | MIC (Escherichia coli, D31, control for MIC test SA-FQR, read-out: MIC of control bacteria on day of MIC testing): 1 µg/mL | MIC (Escherichia coli, D31, control for MIC test SA-FQS, read-out: MIC of control bacteria on day of MIC testing): 1 µg/mL | MIC (Escherichia coli, D31, control for MIC test SE-FQR, read-out: MIC of control bacteria on day of MIC testing): 1 µg/mL | MIC (Escherichia coli, D31, control for MIC test SE-FQS, read-out: MIC of control bacteria on day of MIC testing): 1 µg/mL | MIC (Escherichia coli, D31, control for MIC test SM, read-out: MIC of control bacteria on day of MIC testing): 0.5 µg/mL | MIC (Escherichia coli, D31, control for MIC test SP, read-out: MIC of control bacteria on day of MIC testing): 0.5 µg/mL | MIC (Escherichia coli, D31, control for MIC test SV, read-out: MIC of control bacteria on day of MIC testing): 0.5 µg/mL | MIC (Escherichia coli, D31, reference MIC printed in parentheses beside the day's control value, read-out: MIC for Control Bacteria (within the parentheses)): 0.78 µg/mL (≈ 0.833 µM)
